According to patent US7955808B2, “Bitter taste receptors” (Deutsches Institut für Ernährungsorschung, Stiftung des …, priority 2002, dated 2011):
Blank lines part the entries; values can stand above or below the compound they belong to.

Key:
hTAS2R14 = target: T1, hTAS2R14 (Homo sapiens, UniProt Q9NYV8); assay: FLIPR assay, heterologous expression of hTAS2R14; type: cell-based
T1 construct: gene-specific primers that span the complete coding region of the individual hTAS2R genes; first 45 amino acids of rat somatostatin type 3 receptor (cell surface-targeting signal) (N); expressed in transfected cells; host or cells: HEK-293T-Gα16gustducin44 cells (alternatively HEK-293 co-transfected with phospholipase-Cβ2 and α-gustducin)
T1 sequence (Q9NYV8 1-317): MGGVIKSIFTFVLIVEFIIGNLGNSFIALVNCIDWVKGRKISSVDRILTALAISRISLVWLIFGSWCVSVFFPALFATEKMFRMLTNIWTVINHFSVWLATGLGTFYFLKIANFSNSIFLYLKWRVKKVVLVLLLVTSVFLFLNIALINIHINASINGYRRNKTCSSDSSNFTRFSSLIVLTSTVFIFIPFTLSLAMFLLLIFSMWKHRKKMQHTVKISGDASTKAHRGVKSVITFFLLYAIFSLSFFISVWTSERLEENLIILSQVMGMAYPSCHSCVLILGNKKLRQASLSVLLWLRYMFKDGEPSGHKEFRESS
Source text: (§1) Transient transfection of TAS2Rs into HEK-293T-Gα16gustducin44 cells.

hTAS2R10 [1] = target: T2, hTAS2R10 (Homo sapiens, UniProt Q9NYW0, T156M); assay: FLIPR calcium assay, hTAS2R10-expressing HEK293/15 transfectants; type: cell-based
T2 construct: gene-specific primers that span the complete coding region of the individual hTAS2R genes; first 45 amino acids of rat somatostatin type 3 receptor (cell surface-targeting signal) (N); expressed in transfected cells; host or cells: HEK-293T-Gα16gustducin44 cells (alternatively HEK-293 co-transfected with phospholipase-Cβ2 and α-gustducin)
T2 sequence (Q9NYW0 1-307 T156M): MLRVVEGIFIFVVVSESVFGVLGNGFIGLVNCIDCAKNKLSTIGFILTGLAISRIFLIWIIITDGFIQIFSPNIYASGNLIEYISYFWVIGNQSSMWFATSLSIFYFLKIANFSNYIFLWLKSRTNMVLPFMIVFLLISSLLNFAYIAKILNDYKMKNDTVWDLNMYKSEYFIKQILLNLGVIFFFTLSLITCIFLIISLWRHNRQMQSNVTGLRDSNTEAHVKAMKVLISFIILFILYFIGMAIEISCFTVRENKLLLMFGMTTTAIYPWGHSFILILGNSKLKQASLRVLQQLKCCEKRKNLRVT
Experimental: A fluorescence imaging plate reader (FLIPR, Molecular Devices) was used to functionally screen cell populations transiently transfected with expression vectors encoding the above-described 24 bitter receptors and to establish concentration-response curves for hTAS2R16 and hTASR10. […] For the FLIPR experiments the HEK293/15 cells were grown to 50% confluence. The cells were then seeded at a density of 3×10^3 cells per well into 96-well black-wall, clear-bottom microtiter plates (Greiner). After 48 h the cells in each well were transfected using Lipofectamine 2000 and 24-30 h later were loaded with FIuo4AM (Molecular Probes). […] The responses of five wells containing cells expressing the same receptor and that received the same stimulus (i.e., the same compound at the same concentration) were averaged. Calcium traces were subtracted that were determined in triplicate of mock-transfected cells stimulated with the same concentration of tastant. The calculations rest on at least four independent transfection experiments.

hTAS2R10 [2] = target: T2, hTAS2R10; assay: FLIPR assay, heterologous expression of hTAS2R10; type: cell-based
Source text: as §1

hTAS2R38 = target: T3, hTAS2R38 (Homo sapiens, UniProt P59533); assay: FLIPR assay, heterologous expression of hTAS2R38; type: cell-based
T3 construct: gene-specific primers that span the complete coding region ... contains the first 45 amino acids of the rat somatostatin type 3 receptor
T3 sequence (P59533 1-333 A49P/I296V): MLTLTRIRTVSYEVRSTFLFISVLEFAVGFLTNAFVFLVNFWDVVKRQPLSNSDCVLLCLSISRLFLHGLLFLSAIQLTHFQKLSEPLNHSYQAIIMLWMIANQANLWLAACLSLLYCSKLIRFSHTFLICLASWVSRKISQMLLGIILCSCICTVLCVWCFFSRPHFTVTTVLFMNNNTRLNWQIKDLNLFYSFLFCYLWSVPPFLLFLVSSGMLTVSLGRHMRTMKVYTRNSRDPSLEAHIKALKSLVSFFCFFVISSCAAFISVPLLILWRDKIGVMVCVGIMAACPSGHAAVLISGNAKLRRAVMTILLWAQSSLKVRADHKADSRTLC
Source text: These cells stably express a chimeric G protein constructed from human Gα16 and rat gustducin. Finally, we seeded the transfected cells at a density of 3×10^3 cells per well into 96-well black-wall, clear-bottom microtiter plates (Greiner).
Co-transfection of TAS2Rs with gustducin and phospholipase-Cβ2 into HEK-293 cells. Alternatively, we transfected simultaneously plasmid DNAs encoding one of the TAS2Rs, phospholipase-Cβ2 and α-gustducin into HEK-293 cells using the lipofectamine method. Additional cotransfection of G-protein β and γ-subunits may improve the bitter tastant-induced responses. Thereafter, the transfected cells were seeded at a density of 3×10^3 cells per well into 96-well black-wall, clear-bottom microtiter plates (Greiner).
Thereafter, cells were gently washed in HBS by an automated plate washer (Denley Cellwash, Labsystenms) and transferred to the FLIPR (Molecular Devices). The FLIPR integrates an argon laser excitation source, a 96-well pipettor, and a detection system utilizing a Charged Coupled Device imaging camera. […] Fluorescence data were collected 1 min before and 10 min after stimulation. Data were collected every 6 s before and every 1 s after agonist stimulation. 50 μl of 3× concentrated agonists were delivered within 2 by the integrated 96-well pipettor to the wells containing 100 μl HBS. Agonist responses were quantified using the amplitudes of the fluorescence peaks. We averaged the responses of five wells containing cells expressing the same receptor and that received the same stimulus. Calcium traces were determined in triplicate of mock-transfected cells stimulated with the same concentration of tastant.

hT2R4 receptor = target: T4, hT2R4 receptor (Homo sapiens, UniProt Q9NYW5); conditions: concentrations needed two orders of magnitude above human taste thresholds; cited from earlier work
T4 sequence (Q9NYW5 1-299): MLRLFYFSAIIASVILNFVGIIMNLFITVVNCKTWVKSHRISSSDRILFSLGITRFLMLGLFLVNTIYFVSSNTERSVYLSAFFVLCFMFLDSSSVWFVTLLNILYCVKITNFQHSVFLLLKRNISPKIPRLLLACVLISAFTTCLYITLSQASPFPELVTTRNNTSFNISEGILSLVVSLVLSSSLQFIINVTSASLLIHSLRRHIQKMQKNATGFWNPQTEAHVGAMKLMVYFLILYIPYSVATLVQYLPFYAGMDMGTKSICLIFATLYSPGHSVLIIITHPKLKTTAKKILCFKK

human panelists [3] = assay: Human taste adaptation experiment; type: in vivo; conditions: for bitterness after prolonged stimulation with phenyl-beta-D-glucopyranoside (cross-adaptation): in vivo
Experimental: To investigate adaptation, the 8 panelists first maintained aqueous solutions (5 ml) of phenyl-β-D-glucopyranoside (8 mM), phenyl-alpha-D-glucopyranoside (180 mM), salicin (8 mM), or helicin (8 mM) for 15 s in their oral cavities and evaluated the bitter intensity as described above. After 30 min, they kept a denatonium benzoate solution (5 ml, 0.0003 mM) for 15 s in their mouth and evaluated its bitterness. The panelists spat off the denatonium benzoate solution, took up the phenyl-β-D-glucopyranoside or the phenyl-alpha-D-glucopyranoside solutions orally for 120 s or 180 s and judged their bitterness intensity after 15, 30, 60, 120 and 180s. Thereafter, the panelists spat off these solutions and then sequentially took up salicin, helicin (5 ml, 8 mM) and denatonium benzoate (5 ml, 0.0003 mM) and evaluated bitterness intensities of these solutions after 15 s. After an additional 30 min, the first experiment was repeated. The data of three different sessions for each panelist were averaged. Intensity values between individuals and separate sessions differed by not more than ±0.5 units.

hTAS2R16 [4] = target: T5, hTAS2R16 (Homo sapiens, UniProt Q9NYV7, R222H); assay: Single-cell Ca2+ imaging, hTAS2R16-transfected HEK293/15 cells (selectivity, cross-desensitization); type: cell-based
T5 construct: gene-specific primers that span the complete coding region of the individual hTAS2R genes; first 45 amino acids of rat somatostatin type 3 receptor (cell surface-targeting signal) (N); expressed in transfected cells; host or cells: HEK293/15 cells (HEK293 stably expressing Galpha15), transient transfection
T5 sequence (Q9NYV7 1-291 R222H): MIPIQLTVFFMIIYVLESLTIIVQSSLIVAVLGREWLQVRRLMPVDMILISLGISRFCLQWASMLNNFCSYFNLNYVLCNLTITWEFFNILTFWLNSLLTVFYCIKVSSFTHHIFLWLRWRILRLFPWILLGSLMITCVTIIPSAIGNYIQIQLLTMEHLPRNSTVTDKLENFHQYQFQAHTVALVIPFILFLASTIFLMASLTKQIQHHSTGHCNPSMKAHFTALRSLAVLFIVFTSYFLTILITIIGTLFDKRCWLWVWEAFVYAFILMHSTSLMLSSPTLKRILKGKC
Experimental: A fluorescence imaging plate reader (FLIPR, Molecular Devices) was used to functionally screen cell populations transiently transfected with expression vectors encoding the above-described 24 bitter receptors and to establish concentration-response curves for hTAS2R16 and hTASR10. […] For the FLIPR experiments the HEK293/15 cells were grown to 50% confluence. […] After 48 h the cells in each well were transfected using Lipofectamine 2000 and 24-30 h later were loaded with FIuo4AM (Molecular Probes). Thereafter they were stimulated with bitter compounds (SigmaAldrich, further purified by reversed-phase HPLC to >99% purity). Calcium signals were recorded simultaneously from each well at 1 Hz at 510 nm after excitation at 488 nm and the recordings were corrected for cell density. […]
Single-cell Ca^2+ imaging was performed with the hTAS2R16-transfected HEK293/15 cells as described in Cell 95, 917-926 (1998), but with the following modifications: The Till Photonics imaging system (Munich, Germany) was used in which a monochromator is connected by a quartz fiber lightguide and an epifluorescence condenser to an inverted Olympus IX50 microscope equipped with a UApo/340 40×1.35 oil-immersion lens. […] The 5 s interval camera pictures of all cells in the microscope field of vision permanently were stored and analyzed offline. […]

hTAS2R16 [5] = target: T5, hTAS2R16; assay: FLIPR assay, heterologous expression of hTAS2R16; type: cell-based; conditions: hTAS2R16
Source text: as §1

hTAS2R16 [6] = target: T5, hTAS2R16; assay: FLIPR calcium assay, hTAS2R16-expressing HEK293/15 transfectants; type: cell-based
Experimental: A fluorescence imaging plate reader (FLIPR, Molecular Devices) was used to functionally screen cell populations transiently transfected with expression vectors encoding the above-described 24 bitter receptors and to establish concentration-response curves for hTAS2R16 and hTASR10. […] For the FLIPR experiments the HEK293/15 cells were grown to 50% confluence. […] After 48 h the cells in each well were transfected using Lipofectamine 2000 and 24-30 h later were loaded with FIuo4AM (Molecular Probes). Thereafter they were stimulated with bitter compounds (SigmaAldrich, further purified by reversed-phase HPLC to >99% purity). Calcium signals were recorded simultaneously from each well at 1 Hz at 510 nm after excitation at 488 nm and the recordings were corrected for cell density. […] The calculations rest on at least four independent transfection experiments.
EC50 and threshold values obtained with hTAS2R16-expressing transfectants are shown in Table 1 below and the results are described in Example 4.

human panelists [7] = assay: Human taste experiments: bitter thresholds and dose-response by sensory panel; type: in vivo
Experimental: 15 experienced panelists in a sensory panel room at 22-25° C. determined bitter thresholds on three different sessions using a triangle test with tap water as solvent, according to methodology set out in J. Agric. Food Chem., 49, 231-238 (2001), or Mailgaard M et al, “Sensory Evaluation Techniques” (CRC Press LLC, New York 1999). For dose-response relations, bitter tastant concentration series were presented to 10 trained panelists in random order. The panelists ranked the samples in increasing order of intensity and, for each concentration, evaluated bitterness intensity on a scale from 0 to 5 (ref. 24). The dose-response curves of three different sessions were averaged. The intensity values between individuals and separate sessions differed by not more than 0.5 units.

SMILES: N[C@@H](Cc1c[nH]cn1)C(=O)O [histidine]
receptor activation (in words) (hTAS2R14): activated

SMILES: O=C1C[C@@H]2OCC=C3CN4CC[C@]56c7ccccc7N1[C@H]5[C@H]2[C@H]3C[C@H]46 [Strychnine]
EC50 (hTAS2R10 [1]): 5 to 20 µM
threshold of activation (hTAS2R10 [1]; hTAS2R10 transfectants): approximately 0.1 μM
EC50 (hTAS2R10 [2]): 40 µM
Approx. Threshold (hTAS2R10 [2]; hTAS2R10): 0.003 mM
receptor activation (in words) (hTAS2R10 [2]; hTAS2R10): activated

SMILES: CC[N+](CC)(CC(=O)Nc1c(C)cccc1C)Cc1ccccc1.O=C([O-])c1ccccc1 [Denatonium benzoate]
bitterness after prolonged stimulation with phenyl-beta-D-glucopyranoside (cross-adaptation) (human panelists [3]): not
Approx. Threshold (hTAS2R10 [2]; hTAS2R10): 0.003 mM
receptor activation (in words) (hTAS2R10 [2]; hTAS2R10): activated
EC50 (hTAS2R10 [2]; hTAS2R10, read-out: EC50): 70 µM
activation of TAS2R16 (hTAS2R16 [4]): cannot activate

SMILES: OCc1ccccc1O[C@@H]1O[C@H](CO)[C@@H](O)[C@H](O)[C@H]1O [Compound 2, salicin]
Threshold (hTAS2R16 [5]): 0.07 ± 0.02 mM
EC50 (hTAS2R16 [5]; read-out: EC50): 1400 ± 200 µM
EC50 (hTAS2R16 [6]): 1400 µM
Threshold Value FLIPR (hTAS2R16 [6]): 0.07 ± 0.02 mM
initial bitterness score by test panel (human panelists [3]; 8 mM, 15 s): equally intensely bitter
bitterness after prolonged stimulation with phenyl-beta-D-glucopyranoside (cross-adaptation) (human panelists [3]): less bitter
Threshold Value Human (human panelists [7]; bitter threshold, triangle test, tap water): 0.2 ± 0.1 mM
EC50 (human panelists [7]; bitterness intensity dose-response): 1100 µM
response after repeated stimulation with phenyl-beta-D-glucopyranoside (cross-desensitization) (hTAS2R16 [4]; hTAS2R16-expressing cells): largely diminished responses

SMILES: CC(C)C[C@H](N)C(=O)O [leucine]
receptor activation (in words) (hTAS2R14): activated

SMILES: CC[N+](CC)(CC(=O)Nc1c(C)cccc1C)Cc1ccccc1 [denatonium]
in vitro response of the receptor (hT2R4 receptor): provided a response

Second part, led by results:

Approx. Threshold (hTAS2R38): 0.3 µM
receptor activation (in words) (hTAS2R38): activated
EC50 (hTAS2R38; read-out: EC50): 2 µM
SMILES: CCCc1cc(=O)[nH]c(=S)[nH]1 [6-Propyl-2-thiouracil]
in vitro response of the receptor (hT2R4 receptor): provided a response

receptor activation (in words) (hTAS2R14): activated
SMILES: N[C@@H](Cc1ccccc1)C(=O)O [phenylalanine]

receptor activation (in words) (hTAS2R14): activated
SMILES: N[C@@H](Cc1c[nH]c2ccccc12)C(=O)O [tryptophan]

reacts at (hTAS2R14): 1 mM
receptor activation (in words) (hTAS2R14): activated
SMILES: N[C@@H](Cc1ccc(O)cc1)C(=O)O [L-Tyrosine]
